From US12281333B2, “Renal tube assay device and methods of manufacture and use” (The University of Kansas, priority 2020, dated 2025) come the findings set out here.

The subject of test [1] is tubules of MDCK cells. Kind of test: Contractility of renal tubule model lined by MDCK cells (kymogram analysis of time-lapse images). Type of test: cell-based, canine. To be noted: 250 μm wide MDCK-lined tunnels in collagen I gel; 50 μM inhibitor then washout; FIG. 3B, n=2. The procedure:
Time-lapse recordings of kidney epithelial cells in hydrogel tunnels were performed on a Zeiss Axio Observer Z1 ® inverted microscope with a 10× Plan Neofluar® objective. The microscope was equipped with a Marzhauser SCAN-IM powered stage and a Zeiss AxioCam® MRm CCD camera. Cell cultures established in flow chambers within cell culture dishes (Greiner) were continuously kept in a stage-incubator (Cell Movie) providing 37° C. and humidified 5% CO2 atmosphere. Stage positioning, focusing and image collection were all controlled by Zeiss Axiovision® 4.8 software and a custom-made experiment manager software module. […]
Contraction of renal tubule models were analyzed on the basis of image series captured by phase-contrast time-lapse video microscopy. […]
The inhibitor was applied at 50 μM final concentration in the flow chamber without circulation, resulting in dilation of the tunnel within 30 minutes. […] Both the dilation and contraction responses were quantitatively analyzed by constructing kymograms from the phase-contrast time-lapse image series as shown in FIG. 3A. […] The relative contraction (as defined by the ratio of the measured contraction to tubule diameter) is larger for tubules with smaller diameters: while the 250 μm tubule contracts almost 13% of its diameter, a 600 μm large tubule contracts only about 5% as shown in FIG. 3C. […]

The test system of test [2] is tubules of M1 cells. Kind of test: Contractility of renal tubule model lined by M1 cells (kymogram analysis of time-lapse images). To be noted: for relative contraction (ratio of measured contraction to tubule diameter): percent of untreated tubule diameter, FIG. 3C. Type of test: cell-based, mouse. How it is done: Time-lapse recordings of kidney epithelial cells in hydrogel tunnels were performed on a Zeiss Axio Observer Z1 ® inverted microscope with a 10× Plan Neofluar® objective. The microscope was equipped with a Marzhauser SCAN-IM powered stage and a Zeiss AxioCam® MRm CCD camera. Cell cultures established in flow chambers within cell culture dishes (Greiner) were continuously kept in a stage-incubator (Cell Movie) providing 37° C. and humidified 5% CO2 atmosphere. Stage positioning, focusing and image collection were all controlled by Zeiss Axiovision® 4.8 software and a custom-made experiment manager software module. Phase contrast images were collected consecutively in every 10 minutes from several microscopic fields for up to 4 days. Alternatively, for real-time video microscopy the images were captured at a rate of 20 frames per second.
Contraction of renal tubule models were analyzed on the basis of image series captured by phase-contrast time-lapse video microscopy. Using NIH ImageJ software's Reslice function image series were resliced along a cross sectional line across the tubule resulting in a kymogram.
For inhibition of actomyosin contractility, Y27632, a cell-permeable Rho kinase inhibitor, (Merck Millipore (9) was applied. The inhibitor was dissolved in water and kept in 10 mM stock solutions and used at 50 μM final concentration. For control treatments, an identical volume of water was applied.
The inhibitor was applied at 50 μM final concentration in the flow chamber without circulation, resulting in dilation of the tunnel within 30 minutes. […] Both the dilation and contraction responses were quantitatively analyzed by constructing kymograms from the phase-contrast time-lapse image series as shown in FIG. 3A. In a collagen I gel, the diameter of 250 μm wide M1- or MDCK-lined tunnels contracted by 20 or 15 μm, respectively as shown in FIG. 3B. The relative contraction (as defined by the ratio of the measured contraction to tubule diameter) is larger for tubules with smaller diameters: while the 250 μm tubule contracts almost […] of its diameter, a 600 μm large tubule contracts only about 5% as shown in FIG. 3C.
FIGS. 3A-3C show the contractility of model renal tubules. FIG. 3A includes a representative kymogram along a perpendicular cross section of a tubule of M1 cells in collagen I gel matrix. Time progresses from top to bottom, a 10h long interval is indicated by the arrow. The duration of treatment with 50 μM Y27632 Rho kinase inhibitor is indicated with the red line (scale bar: 50 μm). FIGS. 3B-3C include graphs illustrating quantitative analysis of tubule contractility. […] Error bars represent SEM.

The structures appear in SMILES notation.

Consider `C[C@@H](N)[C@H]1CC[C@H](C(=O)Nc2ccncc2)CC1` [Y27632], for which the “contraction of tunnel diameter” value came out at 15 μm in test [1] and 20 μm in test [2] (250 μm wide M1-lined tunnels in collagen I gel, 50 μM inhibitor then washout, FIG. 3B, n=2). For the same compound, the “time to dilation of the tunnel” value in test [2] (50 μM final concentration in the flow chamber without circulation, cell line not given, FIG. 3A kymogram is M1 cells in collagen I gel) is at most 30 min. Besides, the “relative contraction (ratio of measured contraction to tubule diameter)” value in test [2] (250 μm tubule of M1 cells) is reported as around 13%; in test [2] (600 μm tubule of M1 cells) it was “about 5%”. In addition, the “effect of subsequent washout of the inhibitor on the tunnel” value in test [2] (after 50 μM treatment, washout) is “gradual contraction of the tunnel to approximately its initial state”.
